Experimental data reported in US9938324B2, “FRET-based reagents and methods for identifying anti-HIV compounds” (Cornell University, priority 2012, dated 2018).

Legend:
HIV-1 EnvNL4-3 = assay: smFRET imaging of dually labelled HIV-1 Env on surface-immobilized virions (TIRF); assay type: biochemical, HIV-1NL4-3; settings: for agonist/antagonist character by smFRET (activation of HIV-1 Env): 100 μM, FIG. 10c, d; for effect of inhibitor on smFRET state distribution of HIV-1 Env: tested at concentrations 10-100-fold above the Kd (100 μM), FIG. 10
Description: All HIV-1 virions were generated by transfection of pNL4-3-based plasmids in HEK293T cells. Virus was harvested 24 h post-transfection and concentrated by centrifugation. Dually tagged viruses were site-specifically labelled at each peptide insert simultaneously through incubation with appropriate fluorophore conjugates and labelling enzymes. The viruses were purified away from unbound dye by density-gradient ultracentrifugation. Viruses were immobilized on streptavidin-coated quartz microscope slides, and imaged with a lab-built prism-based TIRF microscope equipped with multiple laser. Donor and acceptor fluorescence were separated with a dichroic filter, and imaged on parallel EMCCD cameras. All analysis was carried out with custom-designed Matlab software.
The tagged Envs (V1-3-Q3/V4-2-A1 and V1-3-A1/V4-2-A1) were subcloned from pNL4-3 into a pNL4-3 construct lacking reverse transcriptase (pNL4-3 ΔRT). Virus for smFRET experiments was generated by co-transfecting HEK293T cells with tagged-Env-containing pNL4-3 ΔRT and a 40-fold excess of wild-type-Env containing pNL4-3 ΔRT. Virus was harvested 24 h post-transfection and concentrated by centrifugation over a 15% sucrose cushion.
All virus labelling reactions were carried out in buffer containing 50 mM HEPES pH7.5, 10 mM MgCl2, 10 mM CaCl2. Virus containing the V1-3-Q3 and V4-2-A1 peptide insertions was labelled by incubation with 0.5 μM AlexaFluor647-cadaverine (Invitrogen), 0.5 μM Cy3-coenzyme A (Cy3-CoA), 0.65 μM transglutaminase (Sigma) (Lin et al., J Am Chem Soc 128, no. 14 (2006): 4542-3), and 5 μM AcpS (Zhou et al., ACS Chem Biol 2, no. 5 (2007): 337-46) for 2 h at 37° C. Alternatively, virus containing the V1-3-A1 and V4-2-A1 peptide insertions was labelled by incubation with 0.5 μM Cy5-CoA, 0.5 μM Cy3-CoA, and 5 μM AcpS for 2 h at 37° C. […]
Fluorescently labelled virus, containing DSPE-PEG2,000-biotin in the viral membrane was immobilized on passivated streptavidin-coated quartz microscope slides and imaged on a lab-built prism-based TIRF microscope. […] Donor and acceptor fluorescence were collected through a high-NA objective, separated with a 650DCXR dichroic filter (Chroma), and imaged on two parallel EMCCD cameras (Photometrics). Movies of surface-immobilized viruses were recorded at 25 frames/s for 40 s at room temperature. […]
All processing and analysis of fluorescence and smFRET trajectories was carried out using custom-designed Matlab (Mathworks) software. Fluorescence trajectories were extracted from the recorded movies and used to calculate FRET efficiency according to FRET=ICy5/(ICy3+ICy5), where ICy5 and ICy3 are the intensities of Cy5 and Cy3 fluorescence, respectively. […]

HIV-1 Env = HIV-1 Env (Human immunodeficiency virus type 1 group M subtype B, UniProt P03375); settings: cited from earlier work
Sequence of HIV-1 Env (P03375 33-856): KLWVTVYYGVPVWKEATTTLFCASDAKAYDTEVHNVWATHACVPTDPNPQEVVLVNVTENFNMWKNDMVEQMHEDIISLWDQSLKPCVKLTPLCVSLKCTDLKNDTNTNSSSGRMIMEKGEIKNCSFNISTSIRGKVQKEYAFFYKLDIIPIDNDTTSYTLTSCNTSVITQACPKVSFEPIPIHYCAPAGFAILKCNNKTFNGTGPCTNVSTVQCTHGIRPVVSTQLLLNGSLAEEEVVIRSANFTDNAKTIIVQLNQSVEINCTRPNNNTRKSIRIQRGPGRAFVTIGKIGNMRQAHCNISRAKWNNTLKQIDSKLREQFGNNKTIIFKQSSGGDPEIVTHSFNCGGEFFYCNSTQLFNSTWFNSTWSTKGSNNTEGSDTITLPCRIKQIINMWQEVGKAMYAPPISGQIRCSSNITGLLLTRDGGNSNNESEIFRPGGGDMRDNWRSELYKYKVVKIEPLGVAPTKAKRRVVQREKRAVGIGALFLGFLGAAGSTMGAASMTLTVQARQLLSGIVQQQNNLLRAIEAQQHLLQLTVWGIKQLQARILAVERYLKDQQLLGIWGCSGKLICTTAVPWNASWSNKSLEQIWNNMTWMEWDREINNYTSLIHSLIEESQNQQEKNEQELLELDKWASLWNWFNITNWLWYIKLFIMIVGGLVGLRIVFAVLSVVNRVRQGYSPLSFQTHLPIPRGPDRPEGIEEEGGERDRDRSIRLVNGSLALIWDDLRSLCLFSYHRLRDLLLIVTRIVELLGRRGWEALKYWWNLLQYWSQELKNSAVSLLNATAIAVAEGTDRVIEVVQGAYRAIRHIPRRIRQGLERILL

## CC1(C)CC(NC(=O)C(=O)Nc2ccc(Cl)c(F)c2)CC(C)(C)N1 [JRC-II-191]
HIV-1 EnvNL4-3
  agonist/antagonist character by smFRET (activation of HIV-1 Env): clear agonists
  effect of inhibitor on smFRET state distribution of HIV-1 Env: induced an intermediate-FRET state
HIV-1 Env
  inactivation of HIV-1 Env: inactivate

## CC1(C)CC(NC(=O)C(=O)Nc2ccc(Cl)cc2)CC(C)(C)N1 [NBD-556]
HIV-1 EnvNL4-3
  agonist/antagonist character by smFRET (activation of HIV-1 Env): clear agonists
  effect of inhibitor on smFRET state distribution of HIV-1 Env: induced an intermediate-FRET state
